Test results reported in patent US20140135359A1, “METHODS OF DESIGNING, PREPARING, AND USING NOVEL PROTONOPHORES” (priority 2012, published 2014).

What was measured:
[1] = system: isolated rat liver mitochondria; experiment: Uncoupling activity: increase in basal (state 4) oxygen consumption by oxygraphy; assay type: biochemical; details: for Uncoupling (%): increase in basal (state 4) oxygen consumption as % of average ADP-stimulated (state 3) rate in vehicle-treated mitochondria
[2] = system: isolated rat liver mitochondria; experiment: Residual functional capacity / inhibitory effect on ADP-stimulated (state 3) oxygen consumption; assay type: biochemical; details: for Residual capacity (%): functional capacity (state 3 minus state 4 rate) as % of vehicle-treated mitochondria
[3] = system: glucose-6-phosphatase (G6Pase) activity in H4IIE hepatocytes; experiment: Glucose-6-phosphatase activity in H4IIE hepatocytes; assay type: cell-based, murine; details: 25 μM, 16 h
Protocol: 2.4 Glucose-6-phosphatase activity in H4IIE hepatocytes: H4IIE murine hepatocytes (American Type Culture Collection) were cultured to confluence in 12-well plates in DMEM supplemented with 10% FBS and antibiotics. […] Effects of test compounds on cellular viability were assessed by measuring the release of lactate dehydrogenase (LDH) into the culture medium at the end of a 16 h treatment using a commercial kit (Cytotoxicity Detection Kit; Roche Diagnostics; Laval, QC) as per the manufacturer's instructions; LDH release was expressed as % of total (medium+lysate) LDH content for each well. Cells were also routinely inspected for abnormal morphology by phase-contrast microscopy at the conclusion of the treatment period. Following treatment, cells were washed in HEPES-buffered saline (10 mM HEPES, pH 7.4, 150 mM NaCl) at 37° C. Glucose-6-phosphatase (G6Pase) activity was assessed by measuring the rate of glucose formation in the presence of a non-limiting amount of glucose-6-phosphate (G6P), as done by others [39B, 40B]. Glucose production was measured with a commercial glucose assay kit (AutoKit Glucose; Wako Diagnostics; Richmond, Va.). Two hundred μl of AutoKit Glucose buffer solution diluted 1:4 in water were added to each well. Cells were then lysed by the addition of 50 μl of 0.05% Triton X-100 in similarly diluted AutoKit Glucose buffer solution. […] At 37° C., after which time 500 μl of AutoKit Glucose color reagent were added and incubation was continued for exactly 5 min. Samples were then rapidly transferred to microcentrifuge tubes. Fifty μl were removed for assay of total protein content in order to account for effects of test compounds on cellular viability or proliferation [41B]. A commercial protein assay kit based on the Bradford method was used (Protein Assay; Bio-Rad Laboratories; Hercules, Calif.). […] The remaining volume was centrifuged at 3000×g for 5 min. Absorbance of the supernatant was measured at 505 nm at ambient temperature and glucose concentration was calculated from a standard curve performed in parallel. Control wells without exogenous G6P were included on each plate for each treatment condition and activity measured from these wells was subtracted from activity measured in the presence of exogenous G6P. G6Pase activity calculated in this way was then expressed normalized to protein content on a well-by-well basis. Two independent experiments in cells of different passages were performed for each of the selected test compounds, with four to six replicates per condition per experiment.
Protocol for assay of glucose-6-phosphatase activity in H4IIE or other hepatocytes: H4IIE murine hepatocytes (American Type Culture Collection) may be cultured to confluence in 12-well plates in Dulbecco's modified Eagle's medium (DMEM) supplemented with 10% fetal bovine serum (FBS), and antibiotics. […] Effects of test compounds on cellular viability may be assessed by measuring the release of lactate dehydrogenase (LDH) into the culture medium at the end of a 16 hour treatment using a commercial kit (e.g., Cytotoxicity Detection Kit; Roche Diagnostics; Laval, QC) as per the manufacturer's instructions; LDH release may be expressed as % of total (i.e., medium+lysate) LDH content for each well. Cells may also be routinely inspected for abnormal morphology by phase-contrast microscopy at the conclusion of the treatment period. Following treatment, cells may be washed in HEPES-buffered saline (10 mM HEPES, pH 7.4, 150 mM NaCl) at 37° C. Glucose-6-phosphatase (G6Pase) activity may be assessed by measuring the rate of glucose formation in the presence of a non-limiting amount of glucose-6-phosphate (G6P). Glucose production may be measured with a commercial glucose assay kit (e.g., AutoKit Glucose; Wako Diagnostics; Richmond, Va.). Two hundred μl of AutoKit Glucose buffer solution diluted 1:4 in water may be added to each well.

O=[N+]([O-])c1ccc(O)c([N+](=O)[O-])c1 [2,4-dinitrophenol]
uncoupling activity ([1]; 50 μM in 0.1% DMSO (FIG. 19)): increased basal oxygen consumption above the level of ADP-stimulated consumption
measured uncoupling activity ([1]; 100 μM): 143%
slope of the linear portion of the concentration-to-activity relationship ([1]; dose-escalation, logarithmic scales): 0.89
EC50 ([1]; dose-escalation, read-out: U50 (concentration at which 50% uncoupling is induced)): ~10 µM
Uncoupling (%) ([1]; test conc. 25 μM): 127 ± 11%
Uncoupling (%) ([1]; test conc. 100 μM): 143 ± 5%
Inhibitory effect (%) ([2]; test conc. 25 μM): 0%
Residual capacity (%) ([2]; test conc. 25 μM): 14 ± 6%
Inhibitory effect (%) ([2]; test conc. 100 μM): 0%
Residual capacity (%) ([2]; test conc. 100 μM): 0 ± 0%
suppression of G6Pase activity per mg total protein [3]: 39%
